The text below walks through data of patent US9669061B2, “Medicinal agent exhibiting antiprotozoal activity to Trichomonas vaginalis in an in-vitro model system” (Viktor Ivanovich Roschin, priority 2008, dated 2017).

In brackets after ≈: the same amount, converted by molar mass.

The test deals with T. vaginalis isolates. Nature of the test: Sensitivity of T. vaginalis isolates to metronidazole (serial dilution MIC by immobilisation; lysis method for amastigote forms). Format: cell-based, Trichomonas vaginalis. The settings on record: for MIC: Trichomonas vaginalis. Here is the method: Then, the sensitivity of T. vaginalis to metronidazole was examined in vitro, using as an indicator the immobilisation of the trichomonad by the test-substance. For the sensitivity test, 90% or more of the protozoa were required to be motile. The sensitivity of T. vaginalis isolates to metronidazole was determined using serials dilution and the minimum inhibitory concentration (MIC) method. 4.0 ml of the medium was placed in test tubes and mixed with 0.5 ml of solution various concentrations of metronidazole—from 0.25 to 1000 μg/ml, or 1 mg/ml).
Then, 0.5 ml of pathogenic culture containing a known concentration of T. vaginalis (cells/ml) was added to the test tubes. Media without the test substance was used as a control. Vaseline was added to the surface (0.5 mm layer) of the tubes to create anaerobic conditions necessary for the growth of T.vaginalis. The test tubes were then placed in a thermostat at 37° C. Results were recorded 48 and 96 hours after inoculation.
The sensitivity of trichomonad to metronidazole was determined based on the minimum inhibitory concentration (MIC), which causes immobilisation of all cells of T.vaginalis. The strains were considered as resistant to metronidazole, when immobilisation occurred at concentration of metronidazole exceeding 15 μg/ml.
The MIC method cannot be used when atypical, amastigote (lacking flagella) T. vaginalis are present. Instead, a common in vitro lysis method for determining the sensitivity to antiprotozoal medications was used. Lysis of all trichomonas is an indicator of the efficacy of the test substance. Nutrient media containing trichomonas without metronidazole was used as a control. Metronidazole, at concentrations of 10, 15, 25, and 50 μg/ml was used in this experiment. Strains that lysed at a concentration of 25 μg/ml were considered resistant to metronidazole.

With `Cc1ncc([N+](=O)[O-])n1CCO` [Metronidazole, metronidazole], the MIC by setting is: (isolate 1 (actively mobile)) 15 mg/L (≈ 87.6 µM); (isolate 2 (actively mobile)) 15 mg/L (≈ 87.6 µM); (isolate 3 (actively mobile)) 25 mg/L (≈ 146 µM); (isolate 4 (amastigote)) 50 mg/L (≈ 292 µM); (isolate 5 (amastigote)) 25 mg/L (≈ 146 µM); (isolate 6 (amastigote)) 50 mg/L (≈ 292 µM). Besides, the MIC by setting is: (isolate 7 (amastigote)) 25 mg/L (≈ 146 µM); (isolate 8 (amastigote)) 25 mg/L (≈ 146 µM); (isolate 9 (amastigote)) greater than 50 mg/L; (isolate 10 (amastigote)) 50 mg/L (≈ 292 µM); (strains 4, 6, 9 and 10) greater than 25 mg/L. For the same compound, under “metronidazole 15 μg/ml”, the “number of isolates (out of 10) on which metronidazole had an effect” value is 2. Further, the “resistance of isolates to metronidazole” value (the rest of the isolates (not affected at 15 μg/ml)) was “resistant”.

As a reminder, the MIC is the lowest concentration that inhibits growth of the organism. Read a high MIC as a need for much substance.
